The values that follow come from patent US5712274A, “Thienotriazolodiazepine compounds and their pharmaceutical use” (Yoshitomi Pharmaceutical Industries, Ltd., priority 1995, dated 1998).

Each structure is given as a SMILES string. Read-outs that look alike come from different tables or passages of the source.

A word on the IC50: it is the midpoint of a concentration-inhibition curve.

In test [1] the test system is TNBS-induced colitis. In words: Effect on TNBS-induced colitis model in rats (intrarectal administration). As to conditions: 7 days. The class given is in vivo, SD rats. The method, then: Effect on trinitrobenzenesufonec acid (TNBS)-induced colitis model in rats.
Colitis was induced by intrarectal injection of TNBS solution (60 mg/ml in 50% EtOH, 500 μl/rat) to SD rats. Seven days later, rats were sacrificed, and large intestine (8 cm from anus) was cut off and weighed. Myeloperoxidase (MPO) activity in the intestinal tissue was measured as follows and taken as an indicator of leukocyte infiltration: the intestinal tissue was homogenized and a cycle of freeze-thawing of the tissue was repeated 3 times. The supernatant obtained by centrifugation was assayed for MPO activity with substrate for peroxidase (o-phenylenediamine). MPO activity in the supernatant was calculated with the commercial MPO as a standard. The increases in intestinal weight and MPO activity as described above were taken as indicators of colitis. Test compounds were suspended in 0.5% hydroxypropylmethylcellulose solution and administered intrarectally (o.2 ml/rat) for 5 days beginning on the day of TNBS injection.

Test [2] relates to CD11b. In words: Effect on CD11b expression in human histiocytic leukemia cell line, U937 cells (PDB-induced). The class given is cell-based. As to conditions: U-937, 72 h, read-out: Inhibitory effect on CD11b expression (IC50). The method, then:
Effect on CD11b expression human histiocytic leukemia cell line, U937 cells
Effect on the expression of CD11b antigen, which is the α chain of an adhesion molecule, Mac-1 expressing on the surface of leukocytgic cells, was investigated. U937 cells were suspended in RPMI1640 medium containing 20% fetal calf serum (FCS), plated with phorbol 12,13-dibutyrate (PDB, 10 ng/ml) into 96-well filtration plates, and cultured for 3 days at 37° C. in 5% CO2. After the cells were washed once with RPMI1640 medium, rat anti-human CD11b antibody (2 μg/ml) was added to each well and the plates were incubated for 1 hr on ice. After the cell were washed twice, peroxidase-conjugated anti-rat immunoglobulin antibody (1 μg/ml) was added, and the cells were incubated for 1 hr on ice. After the cells were washed 3 times, substrate for peroxidase (o-phenylenediamine) was added. After the plates were stood for 15 min at room temperature, absorbance at 490 nm was measured with a 96-well microplate reader and was regarded as a indicator of CD11b antigen expression.

Test [3] concerns VCAM-1. As to the kind of experiment: Inhibitory effect on TNF-α-induced expression of VCAM-1 in HUVECs. It is filed as cell-based. As to conditions: Homo sapiens, HUVEC, read-out: Inhibitory effect (IC50) on CAM-1 expression. Here is the method:
(§1) Inhibitory effect on expression of VCAM-1 and ELAM-1 in human umbilical vein-derived endothelial cells (HUVECs)
(§2) HUVECs were suspended in 199 medium containing 20% FCS, 20 μg/ml endothelial cell growth factor derived from bovine brain, and 100 μg/ml heparin, plated into 96-well microculture plates coated with collagen, and cultured at 37° C. in 5% CO2. When cells were grown to confluence, the cells received tumour necrosis factor (TNF)-α (20 U/ml for VCAM-1 expression, 100 U/ml for ELAM-1 expression) and cultured for 5 hr. After the cells were washed once with 199 medium, mouse anti-human VCAM-1 monoclonal antibody (2 μg/ml) or rat anti-human ELAM-1 monoclonal antibody (2 μg/ml) was added, and the cells were incubated for 1 hr at room temperature. After the cells were washed twice, peroxidase-conjugated anti-mouse immunoglobulin antibody or anti-rat immunoglobulin antibody was added, and the cells were incubated for 1 hr at room temperature. After the cells were washed 3 times, 2,2'-azino-bis(3-ethylbenzothiazolone-6-sulfonic acid) was added. After the plates were stood for 15 min at room temperature, absorbance at 405 nm with a reference wave length of 490 nm was measured with a 96-well microplate reader and was regarded as a indicator of VCAM-1 or ELAM-1 expression.

In test [4] the test system is ELAM-1. In words: Inhibitory effect on TNF-α-induced expression of ELAM-1 in HUVECs. It is filed as cell-based. As to conditions: Homo sapiens, HUVEC, read-out: Inhibitory effect (IC50) on ELAM-1 expression. The method, then:
as §1, §2

The subject of test [5] is oxazolone-induced ear edema. In words: Effect on oxazolone-induced ear edema in mice. The class given is in vivo. As to conditions: sensitized mice, 24 hr after challenge. The method, then:
Effect on oxazolone-induced ear edema in mice.
Mice were sensitized by applying 50 μl of oxazolone solution (50 mg/ml in acetone) to their shaved abdomen on day 0. On day 7, 5 μl of oxazolone solution was applied to each surface of the right ear. After 24 hr (day 8), the right and left ears were cut off with a puncher of 6 mm in diameter and weighed with an electronic reading balance. The difference in weight between the oxazolone-treated ear (right) and untreated ear (left) was taken to reflect the extent of ear edema. Test compounds were suspended in 0.5% hydroxypropylmethycellulose solution and administered p.o. (0.1 ml/10 g body weight) on days 0 to 4 (once a day) and day 7 (twice a day).

For test [6], the system named is thioglycollate (TG) medium-induced infiltration of leukocytes. As to the kind of experiment: Effect on thioglycollate (TG) medium-induced infiltration of leukocytes. The class given is in vivo, BALB/c mice. As to conditions: TG medium 1 ml, day 4. The method, then: Effect on thioglycollate (TG) medium-induced infiltration of leukocytes
One ml of TG medium was injected into peritoneal cavity of BALB/c mice on day 0. On day 4, leukocytes infiltrating into the peritoneal cavity were collected with 3 ml of phosphatebuffered saline containing 0.02% EDTA and the density of leukocytes (cells/ml) was counted with an automatic blood cell counter. Total number of leukocytes (X) was calculated from the density of leukocytes (A) with the following formula.
Test compounds were suspended in 0.5% hydroxypropylmethyl-cellulose solution and administered p.o. (0.1 ml/10 g body weight) on days 0 to 3.

The subject of test [7] is glomerulonephritis. In words: Effect on glomerulonephritis in mice (anti-GBM antiserum). The class given is in vivo, female C57BL/6 mice. As to conditions: 12 days after anti-GBM antiserum, 0-5 points. The method, then: Effect on glomerulonephritis in mice
Rabbit immunoglobulin G solution (4 mg/ml in saline) was mixed with Freund's complete adjuvant at a ratio of 1:1 and the emulsion was prepared. The emulsion was injected into peritoneal cavity of female C57BL/6 mice (0.25 ml/mouse). After 5 days, rabbit anti-mouse glomerular basement membrane (GBM) antiserum obtained by the method of Nagai et al. (Japan. J. Pharmacol., 32, 1117, 1982) was administered i.v. (0.08 ml/mouse). […] Test compounds were suspended in 0.5% hydroxypropylmethylcellulose (HPMC) solution and administered p.o. (0.1 ml/10 g body weight) for 13 days beginning on the day of anti-GBM ant-serum injection.

The subject of test [8] is antigen induced Eosinophils accumulation into lungs. In words: Effect on antigen induced eosinophils accumulation into lungs in actively sensitized guinea pigs. The class given is in vivo, male Dunkin-Hartley guinea pigs. As to conditions: 30 mg/kg p.o., BALF 24 h after antigen exposure. Here is the method:
Effect on antigen induced Eosinophils accumulation into lungs in actively sensitized guinea pigs
Male Dunkin-Hartley guinea pigs (4W, Japan SLC, Inc.) were used throughout this study.
Sensitized animals were orally administered (p.o.) with compound or solvent (0.5% hydroxymethylcellulose) 30 min. before final sensitization, 30 min. before antigen exposure and 4.5 h after antigen exposure.
Egg albumin (EA, 10 μg) was added to AI(OH)3 (10 mg) in sterile physiological saline (0.5 ml) and mixed in a blender. This mixture was injected intraperitoneally into recipients. And after 14 days and 21 days, the procedure was repeated. Seven days after the final sensitization procedure, Mepyramine 10 mg/kg was injected intraperitoneally into the sensitized animals. After 30 min., the animals were exposed to aerosol of 1% EA in sterile physiological saline for 5 min.
24 h after antigen exposure, the animals were killed by exsanguination and tracheae were cannulated. And the lungs were lavaged three times with 10 ml of sterile physiological saline. Lavage fluid (BALF) was centrifuged (800 rpm for 10 min. at 4° C.) and the cell pellet was resuspended in 10 ml of sterile physilolgical saline and total cell numbers in BALF were counted in a hemocytometer (MEK 4200, Nihon-kohden, Ltd.). Differential cell counts were made from centrifuged preparations stained with May-Giemsa stain.

Test [9] deals with lipopolysaccharide (LPS)-induced adhesion of leukocytes. In words: Effect on lipopolysaccharide (LPS)-induced adhesion of leukocytes. As to conditions: 6 hr after LPS. It is filed as in vivo, BALB/c mice. From the text:
Effect on lipopolysaccharide (LPS)-induced adhesion of leukocytes
It has been reported that, by the administration of LPS to mice, an adhesion molecule, Mac-1-dependent leukocyte adhesion is induced, the leukocytes infiltrate into lung, liver and so on, and in result the number of peripheral blood leukocytes reduces (Morisaki et al., Clin. Immunol. Immunopathol., 61, 365-375, 1991). The effect on LPS-induced leukocyte adhesion was investigated by taking the reduction of peripheral blood leukocytes as an indicator of leukocyte adhesion.
LPS solution (50 ng/ml in saline, 0,5 ml/mouse) was injected into peritoneal cavity of BALB/c mice on day 0. Six hr after the LPS injection, the number of peripheral blood leukocytes was counted with an automatic blood cell counter. Test compounds were suspended in 0.5% hydroxypropylmethylcellulose solution and administered p.o. (0.1 ml/10 g body weight) on days -4 to 0.

For `Cc1sc2c(c1C)C(c1ccc(Cl)cc1)=N[C@@H](CC(=O)Nc1ccc(O)cc1)c1nnc(C)n1-2` [Example 3, (S)-N-(4-hydroxyphenyl)-4-(4-chlorophenyl)-2,3,9-trimethyl-6H-thieno[3,2-f][1,2,4]triazolo[4,3-a][1,4]diazepine-6-acetamide], the figures for the “Intestinal weight (mean ± S.D.)” value in test [1] (0.01 mg/site intrarectally), in test [1] (0.1 mg/site intrarectally) and in test [1] (1 mg/site intrarectally) were 501.5 ± 78.3 mg, 472.0 ± 43.4 mg and 460.8 ± 52.3 mg, respectively. Besides, the “MPO activity (mean ± S.D.)” value in test [1] (0.01 mg/site intrarectally) was determined as 0.716 ± 0.158 U/ml; in [1] (0.1 mg/site intrarectally) it was 0.654 ± 0.109 U/ml; in test [1] (1 mg/site intrarectally), 0.676 ± 0.172 U/ml.
As for `Cc1sc2c(c1C)C(c1ccc(Cl)cc1)=N[C@@H](CC(=O)NCCO)c1nnc(C)n1-2` [Example 2, (S)-N-(2-hydroxyethyl)-4-(4-chlorophenyl)-2,3,9-trimethyl-6H-thieno[3,2-f][1,2,4]triazolo[4,3-a][1,4]diazepine-6-acetamide 1/4 hydrate], the IC50 in test [2] (U937 cells, PDB 10 ng/ml, 3 days) was 150 nM; in test [3] (HUVECs, TNF-α 20 U/ml, 5 hr) it was 37 nM; in test [4] (HUVECs, TNF-α 100 U/ml, 5 hr) it was 79 nM. In addition, the “Increase in ear weight (mean ± S.D.)” value in test [5] (0.3 mg/kg p.o.) was found to be 14.3 ± 1.5 mg; in test [5] (1 mg/kg p.o.), 14.2 ± 0.4 mg. Further, the “Total number of leukocytes (mean ± S.D.)” value in test [6] (0.03 mg/kg/day p.o.) is listed as 1064 ± 359 × 10^4; in test [6] (0.1 mg/kg/day p.o.) it was 594 ± 302 × 10^4; in test [6] (0.3 mg/kg/day p.o.), 570 ± 203 × 10^4. Also, the “Score (mean ± S.D.) of protein level in urine” value was determined as 3.25 ± 0.16 in test [7] (1 mg/kg/day p.o.) and 2.44 ± 0.53 in test [7] (3 mg/kg/day p.o.). Also, the Number of eosinophils in test [8] is recorded as 11.8 ± 3.8 × 10^6.
As to `Cc1sc2c(c1C)C(c1ccc(Cl)cc1)=N[C@@H](CC(=O)Nc1ccc(N)cc1)c1nnc(C)n1-2` [Example 4, (S)-N-(4-aminophenyl)-4-(4-chlorophenyl)-2,3,9-trimethyl-6H-thieno[3,2-f][1,2,4]triazolo[4,3-a][1,4]diazepine-6-acetamide], the entries for the “Intestinal weight (mean ± S.D.)” value in [1] (0.01 mg/site intrarectally), in [1] (0.1 mg/site intrarectally) and in [1] (1 mg/site intrarectally) were 490.8 ± 89.9 mg, 488.1 ± 24.0 mg and 511.8 ± 98.5 mg, respectively. The figures for the “MPO activity (mean ± S.D.)” value in test [1] (0.01 mg/site intrarectally), in [1] (0.1 mg/site intrarectally) and in [1] (1 mg/site intrarectally) were 0.703 ± 0,313 U/ml, 0.511 ± 0.103 U/ml and 0.488 ± 0.103 U/ml, respectively.
Turning to `Cc1sc2c(c1C)C(c1ccc(Cl)cc1)=N[C@@H](CC(=O)Nc1cccnc1)c1nnc(C)n1-2.Cl` [Example 5, (S)-N-(3-pyridyl)-4-(4-chlorophenyl)-2,3,9-trimethyl-6H-thieno[3,2-f][1,2,4]triazolo[4,3-a][1,4]diazepine-6-acetamide hydrochloride], the values for the IC50 in test [2], in test [3] (5 h) and in test [4] (5 h) were 260 nM, 4.5 nM and 14 nM, respectively. The “Increase in ear weight (mean ± S.D.)” value came to 15.2 ± 0.8 mg in test [5] (1 mg/kg p.o.), 14.0 ± 0.6 mg in [5] (3 mg/kg p.o.) and 13.3 ± 0.5 mg in test [5] (10 mg/kg p.o.). Further, the “Total number of leukocytes (mean ± S.D.)” value is 1221 ± 239 × 10^4 in test [6] (0.03 mg/kg/day p.o.), 990 ± 327 × 10^4 in test [6] (0.1 mg/kg/day p.o.) and 596 ± 165 × 10^4 in test [6] (0.3 mg/kg/day p.o.). In addition, the entries for the “Number of peripheral blood leukocytes (mean ± S.D.)” value in test [9] (1 mg/kg/day p.o.), in test [9] (3 mg/kg/day p.o.) and in [9] (10 mg/kg/day p.o.) were 46 ± 8 × 100/μl, 69 ± 18 × 100/μl and 103 ± 16 × 100/μl, respectively. Also, the results for the “Score (mean ± S.D.) of protein level in urine” value in test [7] (1 mg/kg/day p.o.) and in [7] (3 mg/kg/day p.o.) were 3.44 ± 0.88 and 2.22 ± 0.44, respectively.
